Holding throughout (assay): KINOMEscan selectivity profiling
Holding throughout (format): binding

The target in one assay is T1, CLK1 (Homo sapiens, UniProt P49759).
T1 construct: purchased Ambit Biosciences Cooperation, San Diego, USA (KINOMEscan)
Conditions: remaining relative to controls, read-out: %Ctrl @ 10 μM (CLK1). On the procedure: (§1) KINOMEscan™ was performed to determine binding constants of coumpound 5 to 442 eukaryotic kinases by Ambit Biosciences Cooperation, San Diego, USA.

Another assay addresses T2, CLK2 (Homo sapiens, UniProt P49760).
T2 construct: purchased Ambit Biosciences Cooperation, San Diego, USA (KINOMEscan)
Particulars: remaining relative to controls, read-out: %Ctrl @ 10 μM (CLK2). As to the method: as §1

The target in another assay is T3, CLK3 (Homo sapiens, UniProt P49761).
T3 construct: purchased Ambit Biosciences Cooperation, San Diego, USA (KINOMEscan)
Conditions: remaining relative to controls, read-out: %Ctrl @ 10 μM (CLK3). On the procedure: as §1

In a further assay the target is T4, CLK4 (Homo sapiens, UniProt Q9HAZ1).
T4 construct: purchased Ambit Biosciences Cooperation, San Diego, USA (KINOMEscan)
T4 sequence (Q9HAZ1 whole entry): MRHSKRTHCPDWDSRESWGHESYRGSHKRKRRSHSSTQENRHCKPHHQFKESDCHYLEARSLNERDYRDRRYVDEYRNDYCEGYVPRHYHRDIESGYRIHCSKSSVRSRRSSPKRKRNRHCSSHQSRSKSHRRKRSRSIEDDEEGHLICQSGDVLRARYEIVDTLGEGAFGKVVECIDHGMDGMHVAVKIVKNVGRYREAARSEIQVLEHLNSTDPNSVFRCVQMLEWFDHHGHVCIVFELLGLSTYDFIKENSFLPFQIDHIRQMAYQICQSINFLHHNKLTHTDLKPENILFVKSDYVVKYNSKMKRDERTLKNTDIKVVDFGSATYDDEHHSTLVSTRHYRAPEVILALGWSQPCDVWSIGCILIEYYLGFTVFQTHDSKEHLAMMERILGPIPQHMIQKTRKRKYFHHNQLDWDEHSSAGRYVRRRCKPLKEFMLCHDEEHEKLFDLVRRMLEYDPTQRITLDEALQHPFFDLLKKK
Conditions: remaining relative to controls, read-out: %Ctrl @ 10 μM (CLK4). On the procedure:
as §1

The next assay deals with T5, CSNK1A1 (Homo sapiens, UniProt P48729).
T5 construct: purchased Ambit Biosciences Cooperation, San Diego, USA (KINOMEscan)
T5 sequence (P48729 whole entry): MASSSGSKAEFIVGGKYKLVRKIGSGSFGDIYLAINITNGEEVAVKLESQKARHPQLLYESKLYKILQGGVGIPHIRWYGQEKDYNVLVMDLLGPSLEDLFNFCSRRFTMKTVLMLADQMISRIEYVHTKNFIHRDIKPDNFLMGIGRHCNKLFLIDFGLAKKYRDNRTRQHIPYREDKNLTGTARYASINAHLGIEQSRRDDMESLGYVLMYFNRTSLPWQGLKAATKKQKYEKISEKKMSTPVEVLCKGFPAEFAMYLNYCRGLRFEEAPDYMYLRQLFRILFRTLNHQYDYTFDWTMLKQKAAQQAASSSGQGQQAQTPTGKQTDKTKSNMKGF
Particulars: remaining relative to controls, read-out: %Ctrl @ 10 μM (CSNK1A1). As to the method: as §1

A further assay deals with T6, CSNK1A1L (Homo sapiens, UniProt Q8N752).
T6 construct: purchased Ambit Biosciences Cooperation, San Diego, USA (KINOMEscan)
T6 sequence (Q8N752 whole entry): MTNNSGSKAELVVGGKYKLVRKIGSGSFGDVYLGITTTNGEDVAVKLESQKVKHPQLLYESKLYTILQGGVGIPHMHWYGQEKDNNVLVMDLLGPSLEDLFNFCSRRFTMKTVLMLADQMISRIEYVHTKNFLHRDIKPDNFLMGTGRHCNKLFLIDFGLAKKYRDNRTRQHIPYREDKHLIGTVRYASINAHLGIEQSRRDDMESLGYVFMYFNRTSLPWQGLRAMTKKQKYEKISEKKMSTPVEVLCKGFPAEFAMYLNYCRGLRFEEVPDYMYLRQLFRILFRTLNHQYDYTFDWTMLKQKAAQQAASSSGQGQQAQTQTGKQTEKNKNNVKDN
Particulars: remaining relative to controls, read-out: %Ctrl @ 10 μM (CSNK1A1L). On the procedure:
as §1

The target in the next assay is T7, CSNK1D (Homo sapiens, UniProt P48730).
T7 construct: purchased Ambit Biosciences Cooperation, San Diego, USA (KINOMEscan)
Particulars: remaining relative to controls, read-out: %Ctrl @ 10 μM (CSNK1D). On the procedure: as §1

A further assay addresses T8, CSNK1E (Homo sapiens, UniProt P49674).
T8 construct: purchased Ambit Biosciences Cooperation, San Diego, USA (KINOMEscan)
Conditions: remaining relative to controls, read-out: %Ctrl @ 10 μM (CSNK1E). On the procedure: as §1

Another assay concerns the target T9, CSNK1G2 (Homo sapiens, UniProt P78368).
T9 construct: purchased Ambit Biosciences Cooperation, San Diego, USA (KINOMEscan)
Particulars: remaining relative to controls, read-out: %Ctrl @ 10 μM (CSNK1G2). As to the method:
as §1

For the next assay, the target named is T10, CSNK1G3 (Homo sapiens, UniProt Q9Y6M4).
T10 construct: purchased Ambit Biosciences Cooperation, San Diego, USA (KINOMEscan)
T10 sequence (Q9Y6M4 whole entry): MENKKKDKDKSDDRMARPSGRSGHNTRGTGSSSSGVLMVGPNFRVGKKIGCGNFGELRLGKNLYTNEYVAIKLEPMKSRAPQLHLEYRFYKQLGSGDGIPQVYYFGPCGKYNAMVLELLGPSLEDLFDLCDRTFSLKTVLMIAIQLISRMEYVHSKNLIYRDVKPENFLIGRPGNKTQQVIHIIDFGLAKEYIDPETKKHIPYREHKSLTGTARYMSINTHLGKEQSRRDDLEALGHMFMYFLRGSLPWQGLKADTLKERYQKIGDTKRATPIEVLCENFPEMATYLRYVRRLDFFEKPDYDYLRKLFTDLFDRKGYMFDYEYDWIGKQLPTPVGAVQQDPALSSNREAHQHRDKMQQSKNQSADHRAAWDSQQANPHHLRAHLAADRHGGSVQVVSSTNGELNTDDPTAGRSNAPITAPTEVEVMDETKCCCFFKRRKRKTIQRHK
Conditions: remaining relative to controls, read-out: %Ctrl @ 10 μM (CSNK1G3). As to the method:
as §1

A further assay has as its target T11, DYRK1A (Homo sapiens, UniProt Q13627).
T11 construct: purchased Ambit Biosciences Cooperation, San Diego, USA (KINOMEscan)
Conditions: remaining relative to controls, read-out: %Ctrl @ 10 μM (DYRK1A). On the procedure: as §1

The target in the next assay is T12, DYRK2 (Homo sapiens, UniProt Q92630).
T12 construct: purchased Ambit Biosciences Cooperation, San Diego, USA (KINOMEscan)
Conditions: remaining relative to controls, read-out: %Ctrl @ 10 μM (DYRK2). On the procedure: as §1

The next assay deals with T13, FLT3(D835H) (Homo sapiens, UniProt P36888, D835H).
T13 construct: purchased Ambit Biosciences Cooperation, San Diego, USA (KINOMEscan)
Conditions: remaining relative to controls, read-out: %Ctrl @ 10 μM (FLT3(D835H)). On the procedure: as §1

A further assay deals with T14, FLT3(D835Y) (Homo sapiens, UniProt P36888, D835Y).
T14 construct: purchased Ambit Biosciences Cooperation, San Diego, USA (KINOMEscan)
Particulars: remaining relative to controls, read-out: %Ctrl @ 10 μM (FLT3(D835Y)). As to the method: as §1

The target in a further assay is T15, IRAK3 (Homo sapiens, UniProt Q9Y616).
T15 construct: purchased Ambit Biosciences Cooperation, San Diego, USA (KINOMEscan)
Particulars: remaining relative to controls, read-out: %Ctrl @ 10 μM (IRAK3). As to the method: as §1

Another assay deals with T16, PIP5K2C (Homo sapiens, UniProt Q8TBX8).
T16 construct: purchased Ambit Biosciences Cooperation, San Diego, USA (KINOMEscan)
Conditions: remaining relative to controls, read-out: %Ctrl @ 10 μM (PIP5K2C). As to the method: as §1

The target in the next assay is T17, SLK (Homo sapiens, UniProt Q9H2G2).
T17 construct: purchased Ambit Biosciences Cooperation, San Diego, USA (KINOMEscan)
T17 sequence (Q9H2G2 whole entry): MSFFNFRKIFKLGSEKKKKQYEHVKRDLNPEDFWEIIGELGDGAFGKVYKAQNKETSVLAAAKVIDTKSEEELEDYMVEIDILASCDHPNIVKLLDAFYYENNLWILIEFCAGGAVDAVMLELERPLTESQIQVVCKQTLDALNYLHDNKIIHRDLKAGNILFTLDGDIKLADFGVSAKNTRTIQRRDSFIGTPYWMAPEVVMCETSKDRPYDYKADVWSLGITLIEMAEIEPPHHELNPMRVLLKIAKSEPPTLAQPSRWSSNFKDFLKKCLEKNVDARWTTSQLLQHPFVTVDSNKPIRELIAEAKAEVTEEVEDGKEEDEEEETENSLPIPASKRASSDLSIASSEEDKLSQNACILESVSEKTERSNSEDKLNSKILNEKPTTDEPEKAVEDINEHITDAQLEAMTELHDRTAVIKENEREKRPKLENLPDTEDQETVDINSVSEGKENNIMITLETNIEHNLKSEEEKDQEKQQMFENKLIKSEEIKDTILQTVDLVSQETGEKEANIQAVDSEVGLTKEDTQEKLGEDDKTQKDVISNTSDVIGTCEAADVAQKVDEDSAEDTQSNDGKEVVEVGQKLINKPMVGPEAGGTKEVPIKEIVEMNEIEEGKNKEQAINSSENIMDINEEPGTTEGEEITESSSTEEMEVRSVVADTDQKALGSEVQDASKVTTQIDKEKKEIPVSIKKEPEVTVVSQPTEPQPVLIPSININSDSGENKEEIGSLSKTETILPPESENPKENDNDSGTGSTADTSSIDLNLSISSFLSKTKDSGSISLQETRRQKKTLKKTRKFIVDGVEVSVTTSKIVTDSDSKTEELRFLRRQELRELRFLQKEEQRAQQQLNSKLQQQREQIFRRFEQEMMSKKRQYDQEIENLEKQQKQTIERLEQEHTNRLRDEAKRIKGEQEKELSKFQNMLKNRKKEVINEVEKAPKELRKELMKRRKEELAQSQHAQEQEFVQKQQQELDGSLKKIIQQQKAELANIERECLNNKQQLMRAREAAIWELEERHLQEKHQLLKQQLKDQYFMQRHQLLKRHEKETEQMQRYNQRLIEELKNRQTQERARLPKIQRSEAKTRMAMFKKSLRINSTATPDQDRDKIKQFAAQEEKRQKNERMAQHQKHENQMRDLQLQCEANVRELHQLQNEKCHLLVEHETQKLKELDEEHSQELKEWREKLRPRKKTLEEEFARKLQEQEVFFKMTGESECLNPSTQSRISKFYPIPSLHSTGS
Conditions: remaining relative to controls, read-out: %Ctrl @ 10 μM (SLK). On the procedure: as §1

The target in another assay is T18, TAOK1 (Homo sapiens, UniProt Q7L7X3).
T18 construct: purchased Ambit Biosciences Cooperation, San Diego, USA (KINOMEscan service)
Conditions: remaining relative to controls, read-out: %Ctrl @ 10 μM (TAOK1). As to the method:
as §1

The next assay concerns the target T19, TAOK3 (Homo sapiens, UniProt Q9H2K8).
T19 construct: purchased Ambit Biosciences Cooperation, San Diego, USA (KINOMEscan service)
Particulars: remaining relative to controls, read-out: %Ctrl @ 10 μM (TAOK3). As to the method: as §1

T1 sequence (P49759 whole entry): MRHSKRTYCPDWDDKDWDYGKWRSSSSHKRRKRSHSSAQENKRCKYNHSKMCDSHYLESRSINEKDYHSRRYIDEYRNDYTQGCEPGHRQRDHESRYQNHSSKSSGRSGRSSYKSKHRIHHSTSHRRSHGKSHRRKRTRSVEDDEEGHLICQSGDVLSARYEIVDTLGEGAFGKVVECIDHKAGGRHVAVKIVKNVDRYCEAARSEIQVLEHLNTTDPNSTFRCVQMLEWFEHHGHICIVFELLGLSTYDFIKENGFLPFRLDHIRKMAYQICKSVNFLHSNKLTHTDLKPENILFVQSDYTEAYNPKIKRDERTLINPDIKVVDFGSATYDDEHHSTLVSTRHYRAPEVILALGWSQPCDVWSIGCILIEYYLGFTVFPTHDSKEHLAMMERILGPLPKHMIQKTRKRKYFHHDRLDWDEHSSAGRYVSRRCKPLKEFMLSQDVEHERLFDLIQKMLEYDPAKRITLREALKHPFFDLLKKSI
T2 sequence (P49760 whole entry): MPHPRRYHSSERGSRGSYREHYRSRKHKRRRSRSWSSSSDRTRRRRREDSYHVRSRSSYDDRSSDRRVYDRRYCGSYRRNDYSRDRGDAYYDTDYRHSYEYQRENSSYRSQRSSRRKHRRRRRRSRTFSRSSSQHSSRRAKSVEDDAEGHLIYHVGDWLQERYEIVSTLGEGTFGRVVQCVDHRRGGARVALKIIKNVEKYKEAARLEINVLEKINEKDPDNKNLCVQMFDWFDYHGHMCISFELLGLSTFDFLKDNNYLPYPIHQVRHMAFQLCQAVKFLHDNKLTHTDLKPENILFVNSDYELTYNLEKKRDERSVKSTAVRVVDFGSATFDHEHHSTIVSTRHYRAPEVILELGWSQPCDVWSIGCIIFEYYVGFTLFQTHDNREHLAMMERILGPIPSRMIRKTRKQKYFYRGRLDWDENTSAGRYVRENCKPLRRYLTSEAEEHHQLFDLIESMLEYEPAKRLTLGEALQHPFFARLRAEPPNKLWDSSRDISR
T8 sequence (P49674 whole entry): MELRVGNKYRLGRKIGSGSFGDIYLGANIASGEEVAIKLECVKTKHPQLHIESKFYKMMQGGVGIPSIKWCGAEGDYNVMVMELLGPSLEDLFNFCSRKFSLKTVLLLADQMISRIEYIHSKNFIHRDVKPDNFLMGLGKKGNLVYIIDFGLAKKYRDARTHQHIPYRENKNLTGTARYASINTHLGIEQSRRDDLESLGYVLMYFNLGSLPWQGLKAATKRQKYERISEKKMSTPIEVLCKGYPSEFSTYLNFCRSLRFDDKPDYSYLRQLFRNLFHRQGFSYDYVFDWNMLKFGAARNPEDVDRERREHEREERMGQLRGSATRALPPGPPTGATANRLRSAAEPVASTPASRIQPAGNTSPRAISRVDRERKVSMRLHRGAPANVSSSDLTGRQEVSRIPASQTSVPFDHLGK
T9 sequence (P78368 whole entry): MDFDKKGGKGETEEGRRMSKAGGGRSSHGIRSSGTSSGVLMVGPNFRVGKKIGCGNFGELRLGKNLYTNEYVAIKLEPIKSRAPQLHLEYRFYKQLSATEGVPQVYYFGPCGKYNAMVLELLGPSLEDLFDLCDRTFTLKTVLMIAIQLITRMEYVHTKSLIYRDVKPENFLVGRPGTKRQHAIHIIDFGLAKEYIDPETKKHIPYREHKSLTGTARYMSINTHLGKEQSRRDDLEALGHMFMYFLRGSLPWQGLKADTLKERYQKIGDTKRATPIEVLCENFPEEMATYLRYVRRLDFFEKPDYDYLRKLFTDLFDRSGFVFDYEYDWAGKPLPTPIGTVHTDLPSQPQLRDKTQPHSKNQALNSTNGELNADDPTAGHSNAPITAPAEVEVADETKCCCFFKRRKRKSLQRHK

On to `O=C(Nc1nc2ccc(C(F)(F)F)cc2[nH]1)c1csc(NC(=O)c2ccccc2OC(F)(F)F)n1` [Compound 5, 2-(2-(Trifluoromethoxy)benzamido)-N-(6-(trifluoromethyl)-1H-benzo[d]imidazol-2-yl)thiazole-4-carboxamide], for which the remaining binding at 10 µM on CLK1 turned out to be 2.6%; at CLK2 it was 10%; on CLK3, 20%; at CLK4, 7.2%; on CSNK1A1, 3%; on CSNK1A1L, 1%. For the same compound, the remaining binding at 10 µM was determined as 2% on CSNK1D; 0.35% on CSNK1E; 9.9% at CSNK1G2; 31% on CSNK1G3; 4.1% at DYRK1A; 17% at DYRK2. Further, the remaining binding at 10 µM at FLT3(D835H) worked out at 25%; at FLT3(D835Y), 10%; on IRAK3, 27%; at PIP5K2C it was 9.6%; at SLK, 12%; at TAOK1 it was 24%. On TAOK3, the remaining binding at 10 µM was 20%.

Values taken from paper PMC3448056, “2-Benzamido-N-(1H-benzo[d]imidazol-2-yl)thiazole-4-carboxamide derivatives as potent inhibitors of CK1δ/ε” (Amino Acids, 2012).
